From patent publication US20220273605A1, “COMPOSITIONS AND METHODS FOR TREATMENT OF PRESBYOPIA” (priority 2019, published 2022)

Test system: rabbits
Assay: Effect on pupil diameter in rabbit animal model (change from baseline)
Type: in vivo
Settings: for reduction from baseline pupil diameter: dose of 1.25% w/w
Experimental: Dose solutions with concentration range of 0.25% to 4% pilocarpine were prepared and dosed in rabbits. The effect on pupil diameter was measured and recorded as the change from baseline.
Dose solutions with concentration range of 0.03% to 3% carbachol were prepared and dosed in rabbits. The effect on pupil diameter was measured and recorded as the change from baseline. […] The expected efficacious range of carbachol resulting in the aforementioned pupil size reduction would correspond to approximately 0.1 to 1% w/w carbachol (FIG. 2).

C[N+](C)(C)CCOC(N)=O.[Cl-] [carbachol, carbamoylcholine chloride]
dose that most closely matches the optimum dose response measured for pilocarpine (20-30% pupil diameter reduction over 0.5 to 2 hours, about 10% up to 3 hours, tested 0.03% to 3%): approximately 0.6 % w/w

CC[C@@H]1C(=O)OC[C@@H]1Cc1cncn1C [pilocarpine]
reduction from baseline pupil diameter (over 0.5 to 2 hours): 20-30% | reduction from baseline pupil diameter (up to 3 hours): approximately 10%
